Columns and labels:
[1] = tested on: HEK293 clonal cell line overexpressing APOL1 G1; assay: APOL1 G1 HEK293 cell rescue assay (Example B3); format: cell-based; conditions: geometric mean of at least 2 runs, † = single run, ¥ = concentration at 50% rescue estimated (no sigmoidal curve)
Method in brief: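 Rescue of cell death caused by APOL1 G1 overexpression was measured in a clonal HEK293 line. Compounds were tested in duplicate on one plate, and EC50s were geometric means across at least two runs on different days. Some values are estimated 50%-rescue concentrations where curve fitting failed.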

[2] = tested on: human immortalized podocytes inducibly expressing APOL1 G2; assay: APOL1 G2 podocyte cell rescue assay (Example B4); format: cell-based; conditions: differentiated human podocytes, doxycycline-induced APOL1 G2, CellTiter-Glo, geometric mean of at least 2 runs, † = single run
Method: APOL1 G2 human immortalized podocyte viability assay for measurement of cytotoxicity reversal by compound (APOL1 G2 podocyte cell rescue assay).
Cell Handling. The hTERT-immortalized kidney podocyte cell line was procured from the laboratory of Dr. Moin Saleem at the University of Bristol, UK (Nephrology 17 (2012) 525-531; doi:10.1111/j.1440-1797.2012.01619.x; herein incorporated by reference in its entirety). Parental and engineered cell lines were cultured in RPMI 1640 media (Gibco, 11875093) with 10% Tet System Approved FBS (Takara, 631101). The engineered cell line was maintained under selection (2.5 μg/mL puromycin). Cell lines were maintained and engineered at 33° C. Cell cultures were transferred to 37° C. for 10 to 14 days to initiate differentiation (Nephrology 17 (2012) 525-531; doi:10.1111/j.1440-1797.2012.01619.x; herein incorporated by reference in its entirety). During this time, media was refreshed every 3 days. After differentiation, cells engineered to inducibly express APOL1 G2 were used in the podocyte cell rescue assay.
Cell Line Engineering. The APOL1 G2 coding sequence was cloned into the pLVX-TetOne-Puro vector and verified by sequencing (Genscript Biotech). This construct was designed to have a C-terminal HiBiT tag. Lentiviral packaging of the vector was conducted using the Lenti-X Packaging Single Shots (VSVG) system according to manufacturer instructions (Takara Bio, 631275). A stable cell line was generated by transfecting the parental podocyte cell line with the concentrated virus in media with 5 μg/mL polybrene (Sigma, TR-1003-G). Media was changed the following day. 72 hours post transfection, 2.5 μg/mL puromycin (Gibco, A1113803) was added to the cells and cells were maintained in selection media thereafter. This APOL1 G2 stable cellular pool was subjected to a stringent limiting dilution to generate a pure stable clone (Podocyte/pLVX-TetOne APOL1 G2/clone D10) capable of inducible expression of APOL1 G2.
Assay Setup. T175 flasks containing differentiated podocytes engineered to inducibly express APOL1 G2 (Podocyte/pLVX-TetOne APOL1 G2/clone D10) were washed once with 15 mL of DPBS (Thermo Fisher, 14190-144). These flasks were each trypsinized with 3 mL of prewarmed TrypLE Express (Gibco, 12605-010) and incubated at 37° C. with 5% CO2 until cells detached and neutralized with 7 mL of prewarmed assay media (RPMI 1640 media with 10% Tet System Approved FBS, no selection agent). Cells were pooled and the resulting suspension was gently mixed. The cell suspension was counted using a Countess Cell Counting Chamber (Invitrogen) and the cell concentration was adjusted to 240,000 cells/mL using assay media. Next, 25 μL of a 480 ng/mL working stock of doxycycline diluted in assay media was added to an assay ready plate. All experiments were performed in 384-well, white, solid bottom, tissue culture treated plates (Greiner, 781080). The assay ready compound plates were generated with duplicate 8-point compound dilution series that consisted of 3-fold stepwise dilutions (0.4% DMSO final). The plates were centrifuged at 1000 rpm for 1 minute. 25 μL of diluted cell suspension (final cell density=6,000 cells/well) was added to each well. The plates were centrifuged again at 1000 rpm for 1 minute and then incubated in a humidified incubator (37° C. with 5% CO2). After 95 hours, the assay plates were removed from the incubator and allowed to equilibrate to room temperature for 1 hour. CellTiter-Glo® reagent (Promega, G7570) was prepared according to the manufacturer's instructions. 25 μL of CellTiter-Glo® reagent was added to each well. Assay plates were sealed with foil and mixed for 5 minutes on an orbital shaker (500 rpm) to induce cell lysis. Plates were centrifuged at 1000 rpm for 1 minute. 10 minutes after CellTiter-Glo® reagent addition, an Envision plate reader (Perkin Elmer) was used to measure the luminescent signal of each assay plate. Collaborative Drug Discovery software was utilized for graphing data. […]

[3] = Homo sapiens, HEK293, HEK293 clonal line overexpressing APOL1 G1

## CC(O)c1ncc(OCCN2CCC3(CC2)C(=O)Nc2ccc(C(F)F)cc23)cc1C(F)(F)F (single isomer, unassigned) [Compound 287, 5-(difluoromethyl)-1′-[2-({6-[(1S) or (1R)-1-hydroxyethyl]-5-(trifluoromethyl)pyridin-3-yl}oxy)ethyl]-1,2-dihydrospiro[indole-3,4′-piperidin]-2-one]
[1]; [3]
  EC50: 0.0858 µM
[2]; Homo sapiens
  EC50: 0.0177 µM

## CC(O)c1ncc(OCCN2CCC3(CC2)C(=O)Nc2ccc(C(F)F)cc23)cc1C(F)(F)F (single isomer, unassigned) [Compound 288, 5-(difluoromethyl)-1′-[2-({6-[(1R) or (1S)-1-hydroxyethyl]-5-(trifluoromethyl)pyridin-3-yl}oxy)ethyl]-1,2-dihydrospiro[indole-3,4′-piperidin]-2-one]
[1]; HEK293 clonal line overexpressing APOL1 G1
  EC50: 0.0621 µM
[2]
  EC50: 0.0195 µM

## CC[C@]1(O)C[C@H](N2C(=O)CCc3cc(OCCN4CCC5(CC4)C(=O)Nc4ccc(Cl)cc45)cnc32)C1 (single isomer, unassigned) [Compound 290, 5-chloro-1′-[2-({7-oxo-8-[(trans)-3-ethyl-3-hydroxycyclobutyl]-5,6,7,8-tetrahydro-1,8-naphthyridin-3-yl}oxy)ethyl]-1,2-dihydrospiro[indole-3,4′-piperidin]-2-one]
[1]; [3]
  EC50: 0.0639 µM
[2]; Homo sapiens
  EC50: 0.00276 µM

## C[C@]1(O)C[C@H](N2C(=O)CCc3cc(OCCN4CCC5(CC4)C(=O)Nc4ccc(Cl)cc45)cnc32)C1 (single isomer, unassigned) [Compound 307, 5-chloro-1′-[2-({7-oxo-8-[(trans)-3-hydroxy-3-methylcyclobutyl]-5,6,7,8-tetrahydro-1,8-naphthyridin-3-yl}oxy)ethyl]-1,2-dihydrospiro[indole-3,4′-piperidin]-2-one]
[1]; [3]
  EC50: 0.07 µM
[2]; Homo sapiens
  EC50: 0.00261 µM

## CS(=O)(=O)c1ccc(OCCN2CCC3(CC2)C(=O)N(CCO)c2ccc(Br)cc23)cc1 [Compound 24, 5-bromo-1-(2-hydroxyethyl)-1′-[2-(4-methanesulfonylphenoxy)ethyl]-1,2-dihydrospiro[indole-3,4′-piperidin]-2-one]
[1]; [3]
  EC50: 0.609 µM
[2]; Homo sapiens
  EC50: 0.0374 µM

## O=C(c1ccc(OCCN2CCC3(CC2)C(=O)Nc2ccc(Cl)cc23)cc1F)N1CCS(=O)(=O)CC1 [Compound 232, 4-[4-(2-{5-chloro-2-oxo-1,2-dihydrospiro[indole-3,4′-piperidin]-1′-yl}ethoxy)-2-fluorobenzoyl]-1λ^6-thiomorpholine-1,1-dione]
[1]; [3]
  EC50: 0.137 µM
[2]; Homo sapiens
  EC50: 0.00217 µM

## CS(=O)(=O)C1CN(C(=O)c2ccc(OCCN3CCC4(CC3)C(=O)Nc3ccc(Cl)cc34)cc2F)C1 [Compound 233, 5-chloro-1′-{2-[3-fluoro-4-(3-methanesulfonyl-azetidine-1-carbonyl)phenoxy]ethyl}-1,2-dihydrospiro[indole-3,4′-piperidin]-2-one]
[1]; [3]
  EC50: 0.244 µM
[2]; Homo sapiens
  EC50: 0.00425 µM

## O=C(c1ccc(OCCN2CCC3(CC2)C(=O)Nc2ccc(Cl)cc23)cc1F)N1CC2(C1)CS(=O)(=O)C2 [Compound 239, 6-[4-(2-{5-chloro-2-oxo-1,2-dihydrospiro[indole-3,4′-piperidin]-1′-yl}ethoxy)-2-fluorobenzoyl]-2λ^6-thia-6-azaspiro[3.3]heptane-2,2-dione]
[1]; [3]
  EC50: 0.191 µM
[2]; Homo sapiens
  EC50: 0.0021 µM

## O=C(c1c(F)cc(OCCN2CCC3(CC2)C(=O)Nc2ccc(Cl)cc23)cc1F)N1CCS(=O)(=O)CC1 [Compound 259, 4-[4-(2-{5-chloro-2-oxo-1,2-dihydrospiro[indole-3,4′-piperidin]-1′-yl}ethoxy)-2,6-difluorobenzoyl]-1λ^6-thiomorpholine-1,1-dione]
[1]; [3]
  EC50: 0.0925 µM
[2]; Homo sapiens
  EC50: 0.00121 µM

## CN1C(=O)C2(CCN(CCOc3cc(F)c(C(=O)N4CCS(=O)(=O)CC4)c(F)c3)CC2)c2cc(C#N)ccc21 [Compound 260, 1′-{2-[4-(1,1-dioxo-1λ^6-thiomorpholine-4-carbonyl)-3,5-difluorophenoxy]ethyl}-1-methyl-2-oxo-1,2-dihydrospiro[indole-3,4′-piperidine]-5-carbonitrile]
[1]; [3]
  EC50: 0.248 µM
[2]; Homo sapiens
  EC50: 0.0103 µM

## CN1C(=O)C2(CCN(CCOc3ccc(C(=O)N4CCS(=O)(=O)CC4)c(C(F)(F)F)c3)CC2)c2cc(C#N)ccc21 [Compound 261, 1′-{2-[4-(1,1-dioxo-1λ^6-thiomorpholine-4-carbonyl)-3-(trifluoromethyl)phenoxy]ethyl}-1-methyl-2-oxo-1,2-dihydrospiro[indole-3,4′-piperidine]-5-carbonitrile]
[1]; [3]
  EC50: 0.167 µM
[2]; Homo sapiens
  EC50: 0.00229 µM

## CS(=O)(=O)c1ccc(OCCN2CCC3(CC2)C(=O)N(CCO)c2ccc(Cl)cc23)cc1C(F)F [Compound 265, 5-chloro-1′-{2-[3-(difluoromethyl)-4-methanesulfonylphenoxy]ethyl}-1-(2-hydroxyethyl)-1,2-dihydrospiro[indole-3,4′-piperidin]-2-one]
[1]; [3]
  EC50: 0.132 µM

## CS(=O)(=O)c1ccc(OCCN2CCC3(CC2)C(=O)N(CCO)c2ccc(C#N)cc23)cc1C(F)F [Compound 266, 1′-{2-[3-(difluoromethyl)-4-methanesulfonylphenoxy]ethyl}-1-(2-hydroxyethyl)-2-oxo-1,2-dihydrospiro[indole-3,4′-piperidine]-5-carbonitrile]
[1]; [3]
  EC50: 0.353 µM

## O=C(c1ccc(OCCN2CCC3(CC2)C(=O)Nc2ccc(Cl)cc23)cc1C(F)(F)F)N1CCS(=O)(=O)CC1 [Compound 272, 4-[4-(2-{5-chloro-2-oxo-1,2-dihydrospiro[indole-3,4′-piperidin]-1′-yl}ethoxy)-2-(trifluoromethyl)benzoyl]-1λ^6-thiomorpholine-1,1-dione]
[1]; [3]
  EC50: 0.148 µM
[2]; Homo sapiens
  EC50: 0.001 µM

## CS(=O)(=O)N1CC2(CN(C(=O)c3ccc(OCCN4CCC5(CC4)C(=O)Nc4ccc(Cl)cc45)cc3F)C2)C1 [Compound 273, 5-chloro-1′-[2-(3-fluoro-4-{6-methanesulfonyl-2,6-diazaspiro[3.3]heptane-2-carbonyl}phenoxy)ethyl]-1,2-dihydrospiro[indole-3,4′-piperidin]-2-one]
[1]; [3]
  EC50: 0.206 µM
[2]; Homo sapiens
  EC50: 0.0052 µM

## C[C@]1(O)C[C@@H](N2C(=O)CCc3cc(OCCN4CCC5(CC4)C(=O)Nc4ccc(C(F)F)cc45)cnc32)C1 [Compound 274, 5-(difluoromethyl)-1′-[2-({7-oxo-8-[(cis)-3-hydroxy-3-methylcyclobutyl]-5,6,7,8-tetrahydro-1,8-naphthyridin-3-yl}oxy)ethyl]-1,2-dihydrospiro[indole-3,4′-piperidin]-2-one]
[1]; [3]
  EC50: 0.0999 µM
[2]; Homo sapiens
  EC50: 0.0188 µM

## CS(=O)(=O)C1CN(c2ncc(OCCN3CCC4(CC3)C(=O)Nc3ccc(Cl)cc34)cn2)C1 [Compound 302, 5-chloro-1′-(2-{[2-(3-methanesulfonylazetidin-1-yl)pyrimidin-5-yl]oxy}ethyl)-1,2-dihydrospiro[indole-3,4′-piperidin]-2-one]
[1]; [3]
  EC50: 0.236 µM

From patent US12344610B2, “APOL1 inhibitors and methods of use” (Maze Therapeutics, Inc., priority 2022, dated 2025)
